Patent US20120028917A1, “Use Of N-(4-((3-(2-Amino-4-Pyrimidinyl)-2-Pyridinyl)Oxy)Phenyl)-4-(4-Methyl-2-Thienyl)-1-Phthalazinamine In The Treatment Of Antimitotic Agent Resistant Cancer” (Amgen Inc., priority 2009, published 2012)
Like-named read-outs stand apart in the source and are kept apart here.

Key:
HCT116 AZD1152-resistant [1] = assay: Colony formation assay (FIG. 6-B); format: cell-based, human; details: HCT116 variant subline, at 50 nmol/L
Procedure: Tumor cell lines were obtained from the American Type Culture Collection (ATCC) unless otherwise specified. The MDA-MB-231-PTX and NCI-H460-PTX cell lines were established by growing the cells in the presence of increasing concentrations of paclitaxel over a period of 6 months. The HCT116 AZD1152-resistant cell line was established by growing the cells in the presence of AZD1152 at 80 nmol/L. Tumor cells were treated with AMG 900, paclitaxel or AZD1152 (0.5, 5, 50 nmol/L) for 48 hours, washed twice with complete media, and cells were re-plated at a density of 5000 cells per well in drug-free complete media. Cells were grown until the DMSO control wells were confluent. Cells were stained with crystal violet dye (Sigma), washed with distilled water, and imaged using a digital scanner (Hewlett-Packard). Colony formation assay was performed with HCT116 cell lines (parental and AZD1152-resistant). Cells were treated with DMSO, AMG 900, AZD1152, or paclitaxel at the indicated concentrations for 48 hours and re-plated in complete media lacking the inhibitor. After the DMSO-treated cells reached confluence, the cells were stained with crystal violet and imaged (duplicate wells).

HCT15 = assay: Cellular EC50, additional cell lines (Table 6-B); format: cell-based, human; details: P-gp+
Procedure: (§1) All high-content cell assays were performed on an ArrayScan VTi HCS Reader (Cellomics). Tumor cell lines were treated with AMG 900, AZD1152, MK-0457, or PHA-739358 (concentration range varied based on potency). The cells were prepared for intracellular staining with an anti-p-histone H3 Ser^10 antibody as previously described (1). Detection was performed with an anti-rabbit IgG-alexa-568 antibody and DAPI. The cellular levels of p-histone H3 were analyzed using Target Activation V2 algorithm (Cellomics) to determine the percentage of positive cells. For the imaging assays, the concentration-response curves and corresponding IC50 and EC50 values were calculated using the percentage of cells affected versus the DMSO control.
(§2) Tumor cells were treated with AMG 900, AZD1152, MK-0457, or PHA-739358 (range concentration varied based on potency) for 24 hours and processed for cell-cycle analysis (DNA staining only) as previously described (1). Cells were analyzed on a LSRII flow cytometer using BD FACS Diva software. The concentration-response curves and corresponding EC50 values were calculated using the percentage of cells with ≧4N DNA content versus the DMSO control.

MCF-7 = assay: Cellular EC50, additional cell lines (Table 6-B); format: cell-based, human; details: MCF-7, Breast
Procedure: as §1, §2

MES-SA parental = assay: p-histone H3 fluorescence-based cell imaging assay; parameters: species or system human; details: P-gp −
Procedure: as §1

NCI-H460 parental = assay: p-histone H3 fluorescence-based cell imaging assay; parameters: species or system human; details: P-gp −
Procedure: as §1

[2] = test system: MES-SA-Dx5 doxorubicin resistant; assay: p-histone H3 fluorescence-based cell imaging assay; parameters: species or system human; details: for EC50: MES-SA Dx5*, Uterine, P-gp+, read-out: Cellular EC50; for IC50: MES-SA-Dx5 doxorubicin resistant, P-gp +
Procedure: as §1

[3] = test system: NCI-H460 PTX paclitaxel resistant; assay: p-histone H3 fluorescence-based cell imaging assay; parameters: species or system human; details: for EC50: NCI-H460-PTX*, Lung, P-gp+, read-out: Cellular EC50; for IC50: NCI-H460 PTX paclitaxel resistant, P-gp +
Procedure: as §1

MDA-MB-231 parental = assay: p-histone H3 fluorescence-based cell imaging assay; parameters: species or system human; details: P-gp −
Procedure: as §1

[4] = test system: MDA-MB-231 PTX paclitaxel resistant; assay: p-histone H3 fluorescence-based cell imaging assay; parameters: species or system human; details: for EC50: MDA-MB-231-PTX*, Breast, P-gp+, read-out: Cellular EC50; for IC50: MDA-MB-231 PTX paclitaxel resistant, P-gp +
Procedure: as §1

769P = assay: Cellular EC50, additional cell lines (Table 6-B); format: cell-based; details: Homo sapiens, Kidney, P-gp+
Procedure: as §1, §2

SNU499 = assay: Cellular EC50, additional cell lines (Table 6-B); format: cell-based; details: Homo sapiens, Liver, P-gp+
Procedure: as §1, §2

HCT116 AZD1152-resistant [5] = assay: ≧4N DNA content assay (FIG. 6-A); format: cell-based; details: Homo sapiens, HCT-116; HCT116 AZD1152-resistant subline; 24 hours; read-out: cellular ≧4N DNA content EC50
Procedure: Tumor cell lines were obtained from the American Type Culture Collection (ATCC) unless otherwise specified. The MDA-MB-231-PTX and NCI-H460-PTX cell lines were established by growing the cells in the presence of increasing concentrations of paclitaxel over a period of 6 months. The HCT116 AZD1152-resistant cell line was established by growing the cells in the presence of AZD1152 at 80 nmol/L.
as §2
(§3) HCT116 cell lines were treated with increasing concentrations of AMG 900 or AZD1152 for 24 hours. Flow cytometry was used to assess the accumulation of cells with ≧4N DNA content expressed as a percentage of the DMSO-treated control (POC). The concentration-response curves and calculated EC50 values were determined from two independent experiments (bars, ±SD).

RPMI8226 = assay: ≧4N DNA content assay (flow cytometry); format: cell-based, human
Procedure: as §2

U226-B1 = assay: ≧4N DNA content assay (flow cytometry); format: cell-based, human; details: U226-B1, BCRP −, 24 hours
Procedure: as §2

HCT116 parental = assay: ≧4N DNA content assay (FIG. 6-A); format: cell-based; details: Homo sapiens, HCT-116, 24 hours, read-out: cellular ≧4N DNA content EC50
Procedure: as §2, §3

[6] = Homo sapiens, RPMI-8226, RPMI8226, BCRP +, 24 hours, read-out: ≧4N DNA Content assay, EC50 value
[7] = Homo sapiens, RPMI-8226**, Multiple Myeloma, P-gp− and/or BCRP+, read-out: Cellular EC50

Row | EC50 (HCT15; Homo sapiens, HCT-15, Colon) [nM] | EC50 (MCF-7; Homo sapiens, MCF7) [nM] | EC50 ([2]; Homo sapiens) [nM] | IC50 ([2]; Homo sapiens) [nM] | EC50 ([3]; Homo sapiens) [nM] | IC50 ([3]; Homo sapiens) [nM] | EC50 ([4]; Homo sapiens) [nM] | IC50 ([4]; Homo sapiens) [nM] | EC50 (769P) [nM] | EC50 (SNU499) [nM] | EC50 (RPMI8226; [6]) [nM] | EC50 (RPMI8226; [7]) [nM] | EC50 (U226-B1; Homo sapiens) [nM] | Structure (SMILES) | IC50 (MES-SA parental; Homo sapiens) [nM] | IC50 (NCI-H460 parental; Homo sapiens) [nM] | IC50 (MDA-MB-231 parental; Homo sapiens) [nM] | further results
1 | > 625 | 11 | > 500 | > 500 | > 500 | > 500 | > 500 | > 500 | 703 | > 1250 | 865 | 865 | 12 | CCN(CCCOc1ccc2c(Nc3cc(CC(=O)Nc4cccc(F)c4)n[nH]3)ncnc2c1)CCOP(=O)(O)O [AZD1152] | 51 | 131 | 16 | sensitivity in colony formation (HCT116 AZD1152-resistant [1]): insensitive; EC50 (HCT116 AZD1152-resistant [5]): 672 nM; EC50 (HCT116 parental): 34 nM
2 | – | – | – | – | – | – | – | – | – | – | – | – | – | Cc1cc(Nc2cc(N3CCN(C)CC3)nc(Sc3ccc(NC(=O)C4CC4)cc3)n2)n[nH]1 [MK-0457] | – | – | – | EC50 (HCT15; Colon): 908 nM; EC50 (MCF-7): 27 nM; IC50 (MES-SA parental): 51 nM; IC50 (NCI-H460 parental): 123 nM; EC50 [2]: > 1250 nM; IC50 [2]: > 1250 nM; EC50 [3]: 468 nM; IC50 [3]: 468 nM; IC50 (MDA-MB-231 parental): 43 nM; EC50 [4]: 277 nM; IC50 [4]: 277 nM; EC50 (RPMI8226; RPMI8226, BCRP +, 24 hours, read-out: ≧4N DNA Content assay, EC50 value): 162 nM; EC50 (RPMI8226; RPMI-8226**, Multiple Myeloma, P-gp− and/or BCRP+, read-out: Cellular EC50): 162 nM; EC50 (U226-B1): 46 nM
3 | > 1250 | 68 | > 1250 | > 1250 | > 1250 | > 1250 | > 1250 | > 1250 | > 1250 | > 1250 | > 1250 | > 1250 | 67 | CO[C@@H](C(=O)N1Cc2n[nH]c(NC(=O)c3ccc(N4CCN(C)CC4)cc3)c2C1)c1ccccc1 [PHA-739358] | 113 | 510 | 49 | –
